Among the data in paper PMC12040169 (PLOS Biology, 2025) are viability values, retold here.

SMILES strings stand for the structures.

One series is described as follows: in vitro. Particulars: human, hela cells.
Regarding `O=P(O)(O)/C=C(\Cl)c1ccccc1` [CBK261019], the viability at 28.5 h, 10 µM turned out to be 97.8%.

Still in this series, the particulars now being: human, hela cells, % viability.
On to `O=C(O)/C=C\C(=O)NCC(=O)O` [CBK260989], for which the viability at 28.5 h, 10 µM stood at 93.5%.

In the case of `N=C(N)SCC1CNC(=N)S1` (centres unmarked) [CBK260991], the viability at 28.5 h, 10 µM was 99.3%.

For `NNC(=O)c1ccc(Oc2ccc(C(=O)NN)cc2)cc1` [CBK260995], the viability at 28.5 h, 10 µM was 85.7%.

For the molecule `CN(CC(=O)O)c1ccccc1C(=O)O` [CBK260996], the viability at 28.5 h, 10 µM is 98.2%.

As to `O=S(=O)([O-])c1cc(S(=O)(=O)O)ccc1Nc1cc2c(nc3ccccc3[n+]2-c2ccccc2)c2ccccc12` [CBK260997N], the viability at 28.5 h, 10 µM worked out at 102%.

On to `[N-]=[N+]=NC1C2OCC(O2)C(OCc2ccccc2)C1O` (centres unmarked) [CBK261000], for which the viability at 28.5 h, 10 µM turned out to be 90.1%.

With `CCOC(=O)CCCCNC(O)C(Cl)(Cl)Cl` (centres unmarked) [CBK261003C], the viability at 28.5 h, 10 µM stood at 106%.

`CC1(C)C(N(O)C(=O)Nc2cccc3ccccc23)N(c2cccc3ccccc23)C(=O)N1CC(=O)NN` (centres unmarked) [CBK261004]: the viability at 28.5 h, 10 µM is 88.2%.

Turning to `O=C(O)C1CSC(c2ccccc2)N1` (centres unmarked) [CBK261008], the viability at 28.5 h, 10 µM came to 114%.

Regarding `CN1C(=O)/C(=C2\SC(=S)N(C(CCC(=O)O)C(=O)O)C2=O)c2ccccc21` (centres unmarked) [CBK261010], the viability at 28.5 h, 10 µM was determined as 92.3%.

Regarding `O=C(O)CCC(C(=O)O)N1C(=O)/C(=C\C(Cl)=C/c2ccc([N+](=O)[O-])cc2)SC1=S` (centres unmarked) [CBK261011], the viability at 28.5 h, 10 µM amounted to 92.1%.

For the molecule `CN1C(=O)/C(=C2\SC(=S)N(C(CC(=O)O)C(=O)O)C2=O)c2ccccc21` (centres unmarked) [CBK261012], the viability at 28.5 h, 10 µM came out at 107%.

As to `O=C(O)CC(C(=O)O)N1C(=O)/C(=C\C(Cl)=C/c2ccc([N+](=O)[O-])cc2)SC1=S` (centres unmarked) [CBK261013], the viability at 28.5 h, 10 µM came to 99.2%.

With `Nc1n[nH]c(CCCc2nc(N)n[nH]2)n1` [CBK261016], the viability at 28.5 h, 10 µM was 89.8%.

Take `c1ccc(-c2cc(-c3ccccc3)n3nc(Cc4nc5nc(-c6ccccc6)cc(-c6ccccc6)n5n4)nc3n2)cc1` [CBK261017]: the viability at 28.5 h, 10 µM stood at 93.1%.

For `CCC(=O)NC(N(Cc1ccccc1)Cc1ccccc1)C(Cl)(Cl)Cl` (centres unmarked) [CBK261022], the viability at 28.5 h, 10 µM came out at 90.9%.

Consider `O=C(NC(N1CCCCC1)C(Cl)(Cl)Cl)c1ccc(Cl)cc1Cl` (centres unmarked) [CBK261024], for which the viability at 28.5 h, 10 µM is 91.6%.

Consider `O=C(O)c1ccc(NC(S)=NC(NC(=O)c2ccco2)C(Cl)(Cl)Cl)cc1` (centres unmarked) [CBK261025], for which the viability at 28.5 h, 10 µM is 96.2%.

Take `CCC(=O)NC(NC(=S)Nc1cccc2cccnc12)C(Cl)(Cl)Cl` (centres unmarked) [CBK261027]: the viability at 28.5 h, 10 µM is 96.1%.

Consider `NC(=O)COc1ccccc1O` [CBK261029], for which the viability at 28.5 h, 10 µM was 111%.

As to `COc1ccc(OCc2nc3ccccc3[nH]2)cc1` [CBK261030], the viability at 28.5 h, 10 µM worked out at 94.8%.

Regarding `O=C(NC1CCS(=O)(=O)C1)/C(=C\c1ccccc1)NC(=O)c1ccc([N+](=O)[O-])cc1` (centres unmarked) [CBK261034], the viability at 28.5 h, 10 µM came to 106%.

Take `O=C(NC(C(=O)c1ccccc1)N1CCCCC1)c1ccccc1` (centres unmarked) [CBK261035]: the viability at 28.5 h, 10 µM was found to be 123%.

As to `O=C(NC(n1cnc2c(N3CCCCC3)ncnc21)C(Cl)(Cl)Cl)c1ccccc1` (centres unmarked) [CBK261038], the viability at 28.5 h, 10 µM was 98.5%.

Take `COc1cc(C(=O)NCC(=O)O)cc(OC)c1OC` [CBK261039]: the viability at 28.5 h, 10 µM turned out to be 89.9%.

As for `COc1ccc(C(=O)NCCc2nc3ccccc3[nH]2)cc1` [CBK261040], the viability at 28.5 h, 10 µM was 101%.

As for `O=C(COc1ccc(Cl)cc1)NNC(=O)c1cccnc1` [CBK261044], the viability at 28.5 h, 10 µM turned out to be 97.4%.

Consider `O=C(/C=C/c1ccccc1)NC(NC(=S)Nc1cccc2cccnc12)C(Cl)(Cl)Cl` (centres unmarked) [CBK261046], for which the viability at 28.5 h, 10 µM amounted to 101%.

With `CC(C)C(=O)NC(NC(=S)Nc1sc2c(c1C(N)=O)CCCC2)C(Cl)(Cl)Cl` (centres unmarked) [CBK261050], the viability at 28.5 h, 10 µM came to 94%.

Turning to `CC(C)(C)C(=O)NC(NC(=S)Nc1sc2c(c1C(N)=O)CCCC2)C(Cl)(Cl)Cl` (centres unmarked) [CBK261052], the viability at 28.5 h, 10 µM turned out to be 94.7%.

With `Cc1ccc(S(=O)(=O)N/N=C(/c2ccccc2)c2ccc(OCC(C)C)cc2)cc1` [CBK261056], the viability at 28.5 h, 10 µM amounted to 87.8%.

As to `O=[N+]([O-])c1ccc(/C=N/CCCN2CCOCC2)cc1` [CBK261058], the viability at 28.5 h, 10 µM was 87.5%.

`CCOC(=O)/C(=N/Nc1cccc(C)c1)c1csc(N)n1` [CBK261059]: the viability at 28.5 h, 10 µM came out at 97.9%.

As to `O=C(COc1ccc(Cl)cc1Cl)NC(Cc1ccccc1)C(=O)O` (centres unmarked) [CBK261061], the viability at 28.5 h, 10 µM worked out at 102%.

`O=C(O)CSc1c(NC(=O)c2ccccc2)sc2c1CCCC2` [CBK261062]: the viability at 28.5 h, 10 µM stood at 97.5%.

As to `c1nncn1/N=C1/CCCc2nonc21` [CBK261065], the viability at 28.5 h, 10 µM was determined as 91.8%.

Take `O=C(NC(=S)Nc1ccc(S(=O)(=O)Nc2nccs2)cc1)C12CC3CC(CC(C3)C1)C2` [CBK261067]: the viability at 28.5 h, 10 µM stood at 101%.

Take `NC(=O)NS(=O)(=O)c1ccc(NC(=S)NC(=O)c2ccco2)cc1` [CBK261068]: the viability at 28.5 h, 10 µM is 117%.

On to `Cc1nc2c([N+](=O)[O-])c3c(c([N+](=O)[O-])c2[nH]1)Nc1nonc1N3` [CBK261069], for which the viability at 28.5 h, 10 µM came to 107%.

With `CC(C)(C)N=C1c2nn(Cc3ccccc3)nc2C(=NC(C)(C)C)c2nn(Cc3ccccc3)nc21` [CBK261070], the viability at 28.5 h, 10 µM was determined as 103%.

Take `CC(C)(C)c1cc(C(C)(C)C)cc(S(=O)(=O)CCc2ccccn2)c1` [CBK261073]: the viability at 28.5 h, 10 µM amounted to 88.4%.

Turning to `c1cc2c3c(ccc(CSCCc4ccncc4)c3c1)CC2` [CBK261074G], the viability at 28.5 h, 10 µM amounted to 90.4%.

For the molecule `O=C(O)c1ccccc1NC1SC(=O)N(c2ccccc2)C1=O` (centres unmarked) [CBK261078], the viability at 28.5 h, 10 µM was 93.7%.

As for `O=C(O)CCC(=O)NNC(=O)c1ccccc1[N+](=O)[O-]` [CBK261079], the viability at 28.5 h, 10 µM came to 95.8%.

For the molecule `O/N=C(\Cn1cncn1)c1ccc(Cl)cc1Cl` [CBK261085], the viability at 28.5 h, 10 µM was 93.5%.

For `COc1cc(-c2ccc(/N=C/c3ccccc3O)c(OC)c2)ccc1/N=C/c1ccccc1O` [CBK261089], the viability at 28.5 h, 10 µM was 101%.

On to `CC(C)(C)NC(NC(=O)Cc1ccccc1)C(Cl)(Cl)Cl` (centres unmarked) [CBK261090], for which the viability at 28.5 h, 10 µM amounted to 86.5%.

As to `O=C(NC(NC1CCS(=O)(=O)C1)C(Cl)(Cl)Cl)c1ccc(Br)cc1` (centres unmarked) [CBK261091], the viability at 28.5 h, 10 µM is 98.2%.

Consider `CN(C)CCO/N=C(\c1ccccc1)c1ccncc1` [CBK261095G], for which the viability at 28.5 h, 10 µM was 94.2%.

Regarding `O=C(O)c1cccc(NC(=O)c2c(C(=O)O)cccc2[N+](=O)[O-])c1` [CBK261096], the viability at 28.5 h, 10 µM was found to be 99.6%.

`O=C(O)c1cccc(NCN2C(=O)c3ccc([N+](=O)[O-])cc3C2=O)c1` [CBK261100]: the viability at 28.5 h, 10 µM worked out at 96%.

Consider `O=C(O)c1ccc(C(=O)O)c(-c2ccccc2)c1` [CBK261102], for which the viability at 28.5 h, 10 µM was found to be 104%.

`CCOP(=O)(O)c1c([N+](=O)[O-])cc(C(F)(F)F)cc1[N+](=O)[O-]` [CBK261106G]: the viability at 28.5 h, 10 µM stood at 103%.

As for `CC(C)NCC(O)Cn1c2c(c3ccccc31)CCc1c-2cnn1-c1ccccc1` (centres unmarked) [CBK261107], the viability at 28.5 h, 10 µM was found to be 99.6%.

Consider `Nc1nonc1C(=NCc1ccccc1)NO` [CBK261109], for which the viability at 28.5 h, 10 µM was 105%.

`NS(=O)(=O)c1ccc(Nc2nc3nonc3nc2Nc2ccc(S(N)(=O)=O)cc2)cc1` [CBK261110]: the viability at 28.5 h, 10 µM was 97.5%.

On to `O=C(Nn1cnnc1)c1ccc(C(=O)Nn2cnnc2)cc1` [CBK261111], for which the viability at 28.5 h, 10 µM was found to be 101%.

Take `O=C(NC(C(=O)N/N=C/c1ccc(Cl)cc1Cl)c1n[nH]c(=O)c2ccccc12)c1ccccc1` (centres unmarked) [CBK261118]: the viability at 28.5 h, 10 µM came to 103%.

Turning to `Cc1ccc(S(=O)(=O)Nc2cc(C)on2)cc1` [CBK261119], the viability at 28.5 h, 10 µM came out at 93.7%.

As for `O=C(CNc1ccc2ccccc2c1)N/N=C/c1cc2c(cc1[N+](=O)[O-])OCO2` [CBK261126], the viability at 28.5 h, 10 µM was 83.1%.

Turning to `O=C(Nc1cccc2nsnc12)c1cc(Cl)ccc1NS(=O)(=O)c1cccc2nsnc12` [CBK261129], the viability at 28.5 h, 10 µM is 80.9%.

Regarding `CCN1CCN(c2ccc(Nc3ccnc4cc5ccccc5cc34)cc2)CC1` [CBK261130], the viability at 28.5 h, 10 µM turned out to be 79.8%.

On to `COc1ccc(N(CCN2CCCCC2)S(=O)(=O)c2ccc(C)cc2)cc1` [CBK261131], for which the viability at 28.5 h, 10 µM is 98.7%.

With `O=S(=O)(NCCN1CCCC1)c1cccc2nsnc12` [CBK261132], the viability at 28.5 h, 10 µM is 97.3%.

For the molecule `O=C1c2ccccc2C(=O)N1CC1c2ccccc2CCN1S(=O)(=O)c1cccc2nsnc12` (centres unmarked) [CBK261133], the viability at 28.5 h, 10 µM was 108%.

With `O=C1CN(S(=O)(=O)CCOc2ccccc2)CC(=O)N1CCc1ccccc1` [CBK261134], the viability at 28.5 h, 10 µM is 92.8%.

As for `O=S(=O)(NCc1nc2ccccc2[nH]1)c1ccc(Cl)c(Cl)c1` [CBK261137], the viability at 28.5 h, 10 µM was 86.2%.

Take `N#CCCN(CCc1ccccc1)S(=O)(=O)c1cccc2nsnc12` [CBK261138]: the viability at 28.5 h, 10 µM was 104%.

Turning to `Cc1ccc(S(=O)(=O)NCC(=O)O)c2nsnc12` [CBK261140], the viability at 28.5 h, 10 µM was 93.1%.

Turning to `Brc1cccc(/C=N/c2ccc3nc(-c4ccccc4)[nH]c3c2)c1` [CBK261143], the viability at 28.5 h, 10 µM turned out to be 109%.

On to `NNC(=O)C(NC(=O)c1ccccc1)c1n[nH]c(=O)c2ccccc12` (centres unmarked) [CBK261144], for which the viability at 28.5 h, 10 µM worked out at 92.9%.

In the case of `Nc1ccc(Cc2ccc(N)c(O)c2)cc1O` [CBK261149], the viability at 28.5 h, 10 µM worked out at 100%.

As for `N#Cc1ccc(Oc2ccc3c(c2)-c2cc(Oc4ccc(C#N)c(C#N)c4)ccc2S3(=O)=O)cc1C#N` [CBK261151], the viability at 28.5 h, 10 µM turned out to be 92.4%.

Staying with this series, now noted: human, hela cells, % viability, bulk resorufin, single well.
For the molecule `CC(C)C(Nc1c([N+](=O)[O-])cc(C(F)(F)F)cc1[N+](=O)[O-])C(=O)O` (centres unmarked) [CBK261041], the viability at 28.5 h, 10 µM came out at 96.4%.

`O=C1NC(=O)N(Cc2ccccc2)C(=O)/C1=N\Nc1ccc([N+](=O)[O-])cc1` [CBK261123]: the viability at 28.5 h, 10 µM was found to be 94.5%.

With `CCOc1ccc(N2C(=O)NC(=O)/C(=C\NCCc3c[nH]c4ccccc34)C2=O)cc1` [CBK261125], the viability at 28.5 h, 10 µM was 104%.
